# Data as given in article PMC10573977, “PNA6, a Lactosyl Analogue of Angiotensin-(1-7), Reverses Pain Induced in Murine Models of Inflammation, Chemotherapy-Induced Peripheral Neuropathy, and Metastatic Bone Disease” (International Journal of Molecular Sciences, 2023).
# Residues, ends and D or L forms follow the SMILES beside them. *: point of attachment. X1 = OC[C@H]1O[C@@H](O[C@H]2[C@H](O)[C@@H](O)[C@H](*)O[C@@H]2CO)[C@H](O)[C@@H](O)[C@H]1O
# How the values were obtained:
# in vivo = conditions: male, Sprague Dawley, rat, serum, iv, 10 mg/kg
# Protocol: To directly compare the in vivo lifetime and the ability of PNA6 to cross the blood–brain barrier (BBB), we devised a methodology that combines simultaneous blood sampling with microdialysis. PNA6 was administered via a single tail vein injection at a dosage of 10 mg/kg. Blood samples were collected at specific time intervals relative to the injection, including t = −10, 1, 5, 10, 20, 30, 40, 50, 60, 70, 80, and 90 min (with t = 0 corresponding to the moment of injection) as shown in Figure 4. The determination of serum and cerebrospinal fluid (CSF) concentrations of PNA6 involved the utilization of a calibration curve, which accounted for factors such as dilution and probe recovery specific to each experimental condition.
# Animals for Dialysis: Male Sprague Dawley rats (275–325 g) were used for dialysis experiments in vivo.
# The compounds were injected intravenously at 10 mg/kg via a single tail vein injection. Blood draws were taken at t = −10, 1, 5, 10, 20, 30, 40, 50, 60, 70, 80, and 90 min (where t = 0 corresponds to injection). Microdialysis fractions were time-locked with blood draws at 10 min increments such that blood draws correlated with the median time of the microdialysis fraction. For microdialysis, a dual syringe pump (PHD 2000, Harvard Apparatus, Holliston, MA, USA) was set to a flow rate of 0.5 mL/minute. […]
# [1] = no reference given, cited from earlier work
# From the text: Our team has taken a novel approach to treating CIPN by taking advantage of our extensive experience with the G-protein linked Mas receptor and its agonist Ang-(1-7) to develop a platform of glycosylated Ang-(1-7) Mas receptor agonists including PNA5 and PNA6 that have outstanding brain penetration, enhanced bioavailability, decreased brain and peripheral inflammation, improved cerebral blood flow, and restored cognitive function in our preclinical vascular dementia and TBI animal models. Activation of Mas decreases ROS and brain inflammation, increases cerebral circulation, increases inductio ...
# naïve mice = conditions: 1 mg/kg i.p., 30, 60, 90 and 120 min after treatment, 10 rpm, cut-off 180 s, vs vehicle
# Protocol: The rotarod test is widely used to evaluate the motor coordination of rodents, and we used it to determine the motor effect of PNA6 to prevent interpretation of behavior as a false positive. Four days before testing, naïve mice were trained to acclimate to the rotating rod (LE8505 Rota-Rod, Panlab Harvard Apparatus, Spain) at a constant speed of 10 rpm. A maximal cut-off time of 180 s was used to prevent exhaustion. On the day of testing, mice were baselined and re-evaluated at 30, 60, 90, and 120 min after treatment.
# cancer-induced bone loss = assay: Radiographic analysis of femur bone integrity (bone score); format: in vivo, mouse
# From the text: Radiographic images of mice’s right femurs with established (CIBP) or sham were captured using a Faxitron machine. Bone loss was rated and evaluated using a bone score scale by a blinded observer where 0 = normal healthy bone; 1 = 1–3 lesions; 2 = 4 to 6 lesions; 3 = uni-cortical bone fractures; and 4 = bicortical bone fractures.
# A digital Faxitron machine (Ultrafocus; Faxitron Bioptics, Tucson, AZ) was used to image the femurs of all mice (all groups in chronic studies) on days 0 (baseline), 7, 10, and 14 post-surgery to determine an average bone score and to exclude the data for any mice with full cortical fracture before day 14. Two blinded observers evaluated the images using a 5-point bone rating scale. Mice were anesthetized with 80 mg/kg ketamine to 12 mg/kg xylazine (in a 10 mL/kg volume) on day 0 before the surgery, D7, D10, and D14, and radiographs were acquired. The bone scoring scale was as follows: 0 = normal bone, 1 = 1–3 lesions with no fracture, 2 = 4+ lesions with no fracture, 3 = uni-cortical, full thickness fracture, and 4 = bicortical, full thickness fracture. Animals with bicortical, full fractures were euthanized as our IACUC protocol measures dictated.
# [2] = target: Mas receptor (Homo sapiens) (UniProt P04201); conditions: cited from earlier work
# Chain of Mas receptor (Homo sapiens) (P04201 whole entry): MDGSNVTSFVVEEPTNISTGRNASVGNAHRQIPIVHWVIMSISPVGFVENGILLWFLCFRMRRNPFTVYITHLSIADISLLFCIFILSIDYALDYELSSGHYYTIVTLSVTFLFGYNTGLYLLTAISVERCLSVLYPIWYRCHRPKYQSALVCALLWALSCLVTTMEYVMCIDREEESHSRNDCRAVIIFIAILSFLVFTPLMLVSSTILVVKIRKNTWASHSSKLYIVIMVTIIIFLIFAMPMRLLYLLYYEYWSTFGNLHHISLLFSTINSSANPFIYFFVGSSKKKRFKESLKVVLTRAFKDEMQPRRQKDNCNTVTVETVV
# Mas receptor (MasR1) = conditions: cited from earlier work
# From the text: The renin-angiotensin system (RAS) is a crucial player in regulating blood pressure and fluid homeostasis. The octapeptide, Angiotensin II, is the first significant end product. Angiotensin II binds strongly to G-coupled protein receptors (GPCRs), Angiotensin receptor type 1 (AT1), to produce vasoconstriction, sodium-water retention, inflammation, and fibrosis; and it binds weakly to Angiotensin II receptor type II (AT2), which produces vasodilation and angiogenesis. Angiotensin II is cleaved by Angiotensin-converting enzyme 2 (ACE2) to yield the heptapeptide, Ang-(1-7), which ha ...
# Chain of Angiotensin-(1-7) (P01019 whole entry, looked up): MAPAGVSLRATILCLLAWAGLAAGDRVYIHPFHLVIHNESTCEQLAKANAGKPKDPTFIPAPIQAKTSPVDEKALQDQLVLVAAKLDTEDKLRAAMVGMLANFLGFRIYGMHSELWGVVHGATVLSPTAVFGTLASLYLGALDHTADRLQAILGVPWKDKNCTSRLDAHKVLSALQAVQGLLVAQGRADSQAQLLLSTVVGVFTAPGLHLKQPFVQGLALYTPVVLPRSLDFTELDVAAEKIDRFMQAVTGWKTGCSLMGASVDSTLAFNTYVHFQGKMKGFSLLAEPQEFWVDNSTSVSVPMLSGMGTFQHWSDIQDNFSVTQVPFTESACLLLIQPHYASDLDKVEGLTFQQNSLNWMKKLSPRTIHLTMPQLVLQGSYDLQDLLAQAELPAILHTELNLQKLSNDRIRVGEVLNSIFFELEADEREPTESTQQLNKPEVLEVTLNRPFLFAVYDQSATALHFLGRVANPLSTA
compound,measurement,setting,value
"CC[C@H](C)[C@H](NC(=O)[C@H](Cc1ccc(O)cc1)NC(=O)[C@@H](NC(=O)[C@H](CCCNC(=N)N)NC(=O)[C@@H](N)CC(=O)O)C(C)C)C(=O)N[C@@H](Cc1c[nH]cn1)C(=O)N[C@@H](CO[C@@H]1O[C@H](CO)[C@@H](O[C@@H]2O[C@H](CO)[C@H](O)[C@H](O)[C@H]2O)[C@H](O)[C@H]1O)C(N)=O [PNA6, Asp-Arg-Val-Tyr-Ile-His-Ser-(O-β-Lact)-amide] (H-DRVYIHS(X1)-NH2)",Tmax,in vivo,1 min
same,half-life,in vivo,22.1 min
same,penetration into the CNS,[1]; 'has been shown',good penetration into the CNS
same,time spent on the rotating rod,naïve mice,neither increased nor decreased the time
same,cancer-induced bone loss vs vehicle,"cancer-induced bone loss; cancer-bearing mice, chronic treatment, radiographs day 14, n = 10–12",did not exacerbate cancer-induced bone loss degradation
same,bone remodeling in sham animals,"cancer-induced bone loss; sustained saline or PNA6, day 14",had no change in bone remodeling
Angiotensin-(1-7) (from UniProt P01019),Kd,[2],0.83 nM
"DRVYIHP [Ang-(1-7), Angiotensin-(1-7)]",half-life in vivo,[1]; degraded rapidly by enzymes,short half-life in vivo
same,selectivity for MasR1 over AT1 receptor,Mas receptor (MasR1); greater selectivity over AT1,60 fold
same,selectivity for MasR1 over AT2 receptor,Mas receptor (MasR1); greater selectivity over AT2,100 fold
